Patent US20100029752A1, “NOVEL COMPOUNDS, PHARMACEUTICAL COMPOSITIONS CONTAINING SAME, AND METHODS OF USE FOR SAME” (priority 2005, published 2010)
Values after ≈ are worked out from the molar mass of the structure shown.

What was measured:
Assay type in all cases: cell-based
[1] = system: fatty acid synthesis pathway activity in MCF-7 human breast cancer cells; test: [14C]acetate incorporation into total lipids; settings: MCF-7 cells, [14C]acetate into lipids; for IC50: Homo sapiens, MCF7
Procedure: This assay measures the incorporation of [^14C]acetate into total lipids and is a measure of fatty acid synthesis pathway activity in vitro. It is utilized to measure inhibition of fatty acid synthesis in vitro.
MCF-7 human breast cancer cells cultured as above, are plated at 5×10^4 cells per well in 24-well plates. Following overnight incubation, the compounds to be tested, solubilized in DMSO, are added at 5, 10, and 20 μg/ml in triplicate, with lower concentrations tested if necessary. DMSO is added to triplicate wells for a vehicle control. C75 is run at 5 and 10 μg/ml in triplicate as positive controls. After 4 hours of incubation, 0.25 μCi of [^14C]acetate (10 μl volume) is added to each well.
After 2 hours of additional incubation, medium is aspirated from the wells and 800 μl of chloroform:methanol (2:1) and 700 μl of 4 mM MgCl2 is added to each well. Contents of each well are transferred to 1.5 Eppendorf tubes, and spun at full-speed for 2 minutes in a high-speed Eppendorf Microcentrifuge 5415D. After removal of the aqueous (upper) layer, an additional 700 μl of chloroform:methanol (2:1) and 500 μl of 4 mM MgCl2 are added to each tube and then centrifuged for 1 minutes as above. The aqueous layer is removed with a Pasteur pipette and discarded. An additional 400 μl of chloroform:methanol (2:1) and 200 μl of 4 mM MgCl2 are added to each tube, then centrifuged and aqueous layer is discarded. The lower (organic) phase is transferred into a scintillation vial and dried at 40° C. under N2 gas. Once dried, 3 ml of scintillant (APB #NBC5104) is added and vials are counted for ^14C. The Beckman Scintillation counter calculates the average cpm values for triplicates.
The IC50 for the compounds is defined as the concentration of drug leading to a 50% reduction in [^14C]acetate incorporation into lipids compared to controls. This is determined by plotting the average cpm for each inhibitor concentration tested, performing linear regression and computing the best-fit line, r^2 values, and 95% confidence intervals. The average cpm values are computed by the Beckman scintillation counter (Model LS6500) for each compound concentration. Computation of linear regression, best-fit line, r^2, and 95% confidence intervals are calculated using Prism Version 3.0 (Graph Pad Software).

[2] = system: MCF-7 human breast cancer cells; test: XTT cytotoxicity assay (M / MCF7); settings: MCF-7 cells, 72 hours
Procedure: The XTT assay is a non-radioactive alternative for the [^51Cr] release cytotoxicity assay. XTT is a tetrazolium salt that is reduced to a formazan dye only by metabolically active, viable cells. The reduction of XTT is measured spectrophotometrically as OD490-OD650. To measure the cytotoxicity of specific compounds against cancer cells, 9×10^3 MCF-7 human breast cancer cells, obtained from the American Type Culture Collection are plated per well in 96 well plates in DMEM medium with 10% fetal bovine serum, insulin, penicillin, and streptomycin. Following overnight culture at 37° C. and 5% CO2, the compounds to be tested, dissolved in DMSO, are added to the wells in 1 μl volume at the following concentrations: 80, 40, 20, 10, 5, 2.5, 1.25, and 0.625 μg/ml in triplicate. Additional concentrations are tested if required. 1 μl of DMSO is added to triplicate wells are the vehicle control. C75 is run at 40, 20, […], and 5 μg/ml in triplicate as positive controls. After 72 hours of incubation, cells are incubated for 4 hours with the XTT reagent as per manufacturer's instructions (Cell Proliferation Kit 11 (XTT) Roche). Plates are read at OD490 and OD650 on a Molecular Devices SpectraMax Plus Spectrophotometer. Three wells containing the XTT reagent without cells serve as the plate blank. XTT data are reported as OD490-OD650. Averages and standard error of the mean are computed using SOFTmax Pro software ([…]). The IC50 for the compounds is defined as the concentration of drug leading to a 50% reduction in OD490-OD650 compared to controls. The OD490-OD650 are computed by the SOFTmax PRO software (Molecular Devices) for each compound concentration. IC50 is calculated by linear regression, plotting the FAS activity as percent of control versus drug concentrations. Linear regression, best-fit line, r^2, and 95% confidence intervals are determined using Prism Version 3.0 (Graph Pad Software).

OV = test: XTT cytotoxicity assay (OV); settings: (OV) cells
Procedure: The XTT assay is a non-radioactive alternative for the [^51Cr] release cytotoxicity assay. XTT is a tetrazolium salt that is reduced to a formazan dye only by metabolically active, viable cells. The reduction of XTT is measured spectrophotometrically as OD490-OD650. After 72 hours of incubation, cells are incubated for 4 hours with the XTT reagent as per manufacturer's instructions (Cell Proliferation Kit 11 (XTT) Roche). Plates are read at OD490 and OD650 on a Molecular Devices SpectraMax Plus Spectrophotometer. Three wells containing the XTT reagent without cells serve as the plate blank. XTT data are reported as OD490-OD650. Averages and standard error of the mean are computed using SOFTmax Pro software (Molecular Dynamics). The IC50 for the compounds is defined as the concentration of drug leading to a 50% reduction in OD490-OD650 compared to controls. The OD490-OD650 are computed by the SOFTmax PRO software (Molecular Devices) for each compound concentration. IC50 is calculated by linear regression, plotting the FAS activity as percent of control versus drug concentrations. Linear regression, best-fit line, r^2, and 95% confidence intervals are determined using Prism Version 3.0 (Graph Pad Software).

IC50 [1] [µg/mL]	14C (IC50) [1]	Structure (SMILES)	IC50 [2] [µg/mL]	IC50 (OV) [µg/mL]
55.2 (≈ 273 µM)	–	COC(=O)c1sc(C(=O)O)cc1O	> 80	> 80
20.5 (≈ 65.4 µM)	–	CCCCCCCCNC(=O)c1cc(O)c(C(=O)OC)s1	47.5 (≈ 152 µM)	37.1 (≈ 118 µM)
–	Neg	C=CCNC(=O)c1cc(O)c(C(=O)OC)s1	> 80	> 80
41.2 (≈ 125 µM)	–	CCCCCCCCNNC(=O)c1cc(O)c(C(=O)OC)s1	73.3 (≈ 223 µM)	77.1 (≈ 235 µM)
25.2 (≈ 77.1 µM)	–	COC(=O)c1sc(C(=O)NNc2ccc(Cl)cc2)cc1O	> 80	50 ± 5 (≈ 153 µM)
17.6 ± 1.9 (≈ 68.9 µM)	–	CCCCCCCCNC(=O)c1cc(O)cs1	9.9 (≈ 38.8 µM)	9.5 (≈ 37.2 µM)
